Experimental data from patent US20260265305A1, “POLYPEPTIDE DERIVATIVE FOR ORAL DELIVERY” (Hangzhou Sciwind Biosciences Co., Ltd., priority 2023, published 2026).
pEC50: −log10 of the molar value. “And” between values parts separate entries of the source, which are not always exact repeats. Equal entries are not always repeated. Numbered stars: 1 amine (or outer) side, 2 acyl side, 3 side chain; on linkers, the order of the positions; unused ones are H or OH. Peptide text beside a SMILES is read from it. * marks the point of attachment. C22 diacid = O=C(O)CCCCCCCCCCCCCCCCCCCCC(=O)*; C20 diacid = O=C(O)CCCCCCCCCCCCCCCCCCC(=O)*; C18 diacid = O=C(O)CCCCCCCCCCCCCCCCC(=O)*; γGlu = O=C(O)[C@H](CCC(=O)[*:2])N[*:1]; AEEA = NCCOCCOCC(=O)O

Columns and labels:
[1] = Heat accelerated stability assay of polypeptide solutions (40° C., pH about 7.4), reversed phase chromatography; format: physicochemical; conditions: 40° C.; for Concentration change on 7 d / Concentration change on 26 d: pH about 7.4, 1 mg/mL; for Concentration change on 7 d / Purity change on 7 d: Day 7; for Concentration change on 26 d / Purity change on 26 d: Day 26; for Purity change on 7 d / Purity change on 26 d: reversed phase chromatography 214 nm; for Purity change on 7 d: purity on 7 d − purity on 0 d; for Purity change on 26 d: purity on 26 d − purity on 0 d
Experimental: A stability test chamber (BINDER GmbH), a 0.01 mg-readability balance (METTLER TOLEDO), a pH meter (METTLER TOLEDO), a biosafety cabinet (ESCO), T2G-II small-sized motor-driven capping machine (Changsha zhongya pharmaceutical equipment co. LTD), a high-speed refrigerated centrifuge (Eppendorf), a sterilizer cabinet (Shinva Medical), Agilent 1260 high-performance liquid chromatographer, and Sepax Bio-C18 4.6*250 mm 3 μm 200 Å reversed phase column were used.
Reagents and consumables included: ultrapure water (18.2 MΩ, self-made), acetonitrile (HPLC grade), trifluoroacetic acid (HPLC grade), sodium dihydrogen phosphate (pharmaceutical grade, Hunan Jiudian Hongyang Pharmaceutical Co., Ltd), hydrochloric acid (pharmaceutical grade, Hunan Er-Kang Pharmaceutical Co., Ltd), sodium hydroxide (Analytical Reagent grade, Hushi®, Sinopharm Chemical Reagent Co., Ltd), vials, rubber stoppers, disposable syringes, and sterile filters.
The lyophilized powder (1 mg/mL) of the polypeptide derivative prepared in accordance with the method of Example 1 was mixed with sodium dihydrogen phosphate (1.42 mg/mL) and dissolved in ultrapure water in the indicated mass-volume ratios. After adjusting pH to about 7.4 with hydrochloric acid/sodium hydroxide, the solution was filtered into a sterilized vial in a clean bench using a 0.22 μm sterile filter. The vial was then capped and placed into the stability test chamber at 40° C. Detections were made on Days 7 (7d) and 26 (26d), and during the assay, changes in the characteristics and properties of the polypeptide were observed and recorded. The sample was then centrifuged for 3 min at 10,000 rpm at 4° C., and the supernatant was transferred to a liquid phase sample vial for detecting the concentration and purity of the polypeptides using liquid phase chromatography described as below, wherein the concentration of the polypeptide=peak area/injection volume/extinction coefficient/60×flow rate, and the purity of the polypeptide=target peak area/total peak area×100%.
Conditions of the reversed phase chromatography Flow rate: 1.0 ml/min; Autosampler temperature: 15° C.; Column temperature: 25° C.; Detection wavelengths: 280 nm and 214 nm; Mobile phase A: 100% H2O+0.05% TFA; Mobile phase B: 100% ACN; and Gradient of elution listed in Table 6: […]

[2] = biological target: T1, calcitonin receptor (hCTR) (Homo sapiens, UniProt P30988); test: Calcitonin receptor agonism, CRE-luciferase assay in stably transfected CHO-K1/CALCR/Ga15 cells; format: cell-based; conditions: incubation of 24 hours; Table 4; read-out: EC50, activity against the calcitonin receptor in cells
T1 construct: host or cells: CHO-K1/CALCR/Ga15 cells, further stably transfected with a CRE-luciferase plasmid
T1 sequence (P30988 25-474): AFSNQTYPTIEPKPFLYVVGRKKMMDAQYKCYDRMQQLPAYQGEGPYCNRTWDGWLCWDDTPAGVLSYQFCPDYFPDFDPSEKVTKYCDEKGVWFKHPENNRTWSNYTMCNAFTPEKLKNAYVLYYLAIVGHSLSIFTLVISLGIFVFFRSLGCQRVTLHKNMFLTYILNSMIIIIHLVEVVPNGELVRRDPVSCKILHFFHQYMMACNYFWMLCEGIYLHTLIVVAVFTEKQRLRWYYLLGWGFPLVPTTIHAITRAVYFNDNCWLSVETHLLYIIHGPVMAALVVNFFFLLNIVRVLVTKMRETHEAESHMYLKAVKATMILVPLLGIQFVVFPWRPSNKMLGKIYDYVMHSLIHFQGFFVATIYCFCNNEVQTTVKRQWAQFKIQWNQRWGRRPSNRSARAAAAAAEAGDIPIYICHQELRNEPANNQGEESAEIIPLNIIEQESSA

amylin receptor (hAMY3R) = biological target: T2, amylin receptor (hAMY3R) (Homo sapiens, UniProt O60896+P30988); test: Amylin receptor agonism testing, CRE-luciferase assay in stably transfected CHO-K1/Ga15/AMY3 cells; format: cell-based; conditions: incubation of 24 hours; Table 3; read-out: EC50, activity against the amylin receptor in cells
T2 construct: host or cells: CHO-K1/Ga15/AMY3 cells, further stably transfected with a CRE-luciferase plasmid
T2 sequence (P30988 25-474): T1 sequence (P30988 25-474)
T2 sequence (O60896 24-148): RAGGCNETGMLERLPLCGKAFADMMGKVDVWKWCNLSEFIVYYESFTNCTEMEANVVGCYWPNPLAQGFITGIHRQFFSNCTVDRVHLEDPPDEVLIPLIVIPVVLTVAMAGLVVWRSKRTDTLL

Row | Compound | Purity change on 7 d [1] | Purity change on 26 d [1] | pEC50 [2] | pEC50 (amylin receptor (hAMY3R)) | Concentration change on 7 d [1] | Concentration change on 26 d [1]
1 | M20: SEQ ID NO. 4 ASQLSTAVLGRLSDELHRLQDYPRTDVGSGSP-NH2, N terminus, C20 diacid + γGlu + 6 AEEAs ({C20 diacid-γGlu-AEEA-AEEA-AEEA-AEEA-AEEA-AEEA}-ASQLSTAVLGRLSDELHRLQDYPRTDVGSGSP-NH2) | No change | −1.59% |  |  | No change (concentration change of less than 1% (denoted as “no change”)) | −3.662%
2 | M19: SEQ ID NO. 4 ASQLSTAVLGRLSDELHRLQDYPRTDVGSGSP-NH2, N terminus, C20 diacid + γGlu + 4 AEEAs ({C20 diacid-γGlu-AEEA-AEEA-AEEA-AEEA}-ASQLSTAVLGRLSDELHRLQDYPRTDVGSGSP-NH2) | No change | nearly no noticeable change in purity |  |  |  | −1.589%
3 | D2: SEQ ID NO. 5 CSNLSTCVLGKLSQELHKLQTYPRTNTGSGTP-NH2, no modification, no fatty acid [reference compound] |  |  |  |  | −40% and −40.064% | 

Second part, led by results:

Row | Purity change on 7 d [1] | Purity change on 26 d [1] | pEC50 [2] | pEC50 (amylin receptor (hAMY3R)) | Compound | Concentration change on 7 d [1] | Concentration change on 26 d [1]
4 | No change | nearly no noticeable change in purity | 9.71 |  | CC(C)C[C@H](NC(=O)[C@H](CCCNC(=N)N)NC(=O)CNC(=O)[C@H](CC(C)C)NC(=O)[C@@H](NC(=O)[C@H](C)NC(=O)[C@@H](NC(=O)[C@H](CO)NC(=O)[C@H](CC(C)C)NC(=O)[C@H](CCC(N)=O)NC(=O)[C@H](CO)NC(=O)[C@H](C)NC(=O)CC[C@H](NC(=O)CCCCCCCCCCCCCCCCCCCCC(=O)O)C(=O)O)[C@@H](C)O)C(C)C)C(=O)N[C@@H](CO)C(=O)N[C@@H](CC(=O)O)C(=O)N[C@@H](CCC(=O)O)C(=O)N[C@@H](CC(C)C)C(=O)N[C@@H](Cc1c[nH]cn1)C(=O)N[C@@H](CCCNC(=N)N)C(=O)N[C@@H](CC(C)C)C(=O)N[C@@H](CCC(N)=O)C(=O)N[C@@H](CC(=O)O)C(=O)N[C@@H](Cc1ccc(O)cc1)C(=O)N1CCC[C@H]1C(=O)N[C@@H](CCCNC(=N)N)C(=O)N[C@H](C(=O)N[C@@H](CC(=O)O)C(=O)N[C@H](C(=O)NCC(=O)N[C@@H](CO)C(=O)NCC(=O)N[C@@H](CO)C(=O)N1CCC[C@H]1C(N)=O)C(C)C)[C@@H](C)O [M7] ({C22 diacid-γGlu}-ASQLSTAVLGRLSDELHRLQDYPRTDVGSGSP-NH2) | No change (concentration change of less than 1% (denoted as “no change”)) | No change (concentration change of less than 1% (denoted as “no change”))
5 | −1.66% | −2.01% |  | 10.36 | CC(C)C[C@H](NC(=O)[C@H](CCCNC(=N)N)NC(=O)CNC(=O)[C@H](CC(C)C)NC(=O)[C@@H](NC(=O)[C@H](C)NC(=O)[C@@H](NC(=O)[C@H](CO)NC(=O)[C@H](CC(C)C)NC(=O)[C@H](CCC(N)=O)NC(=O)[C@H](CO)NC(=O)[C@H](C)NC(=O)COCCOCCNC(=O)COCCOCCNC(=O)COCCOCCNC(=O)COCCOCCNC(=O)COCCOCCNC(=O)COCCOCCNC(=O)COCCOCCNC(=O)COCCOCCNC(=O)CC[C@H](NC(=O)CCCCCCCCCCCCCCCCCCC(=O)O)C(=O)O)[C@@H](C)O)C(C)C)C(=O)N[C@@H](CO)C(=O)N[C@@H](CC(=O)O)C(=O)N[C@@H](CCC(=O)O)C(=O)N[C@@H](CC(C)C)C(=O)N[C@@H](Cc1c[nH]cn1)C(=O)N[C@@H](CCCNC(=N)N)C(=O)N[C@@H](CC(C)C)C(=O)N[C@@H](CCC(N)=O)C(=O)N[C@@H](CC(=O)O)C(=O)N[C@@H](Cc1ccc(O)cc1)C(=O)N1CCC[C@H]1C(=O)N[C@@H](CCCNC(=N)N)C(=O)N[C@H](C(=O)N[C@@H](CC(=O)O)C(=O)N[C@H](C(=O)NCC(=O)N[C@@H](CO)C(=O)NCC(=O)N[C@@H](CO)C(=O)N1CCC[C@H]1C(N)=O)C(C)C)[C@@H](C)O [M21] ({C20 diacid-γGlu-AEEA-AEEA-AEEA-AEEA-AEEA-AEEA-AEEA-AEEA}-ASQLSTAVLGRLSDELHRLQDYPRTDVGSGSP-NH2) | −1.388% | −4.522%
6 | −1.66% | −5.98% |  |  | CC(C)C[C@H](NC(=O)[C@H](CCCNC(=N)N)NC(=O)CNC(=O)[C@H](CC(C)C)NC(=O)[C@@H](NC(=O)[C@H](C)NC(=O)[C@@H](NC(=O)[C@H](CO)NC(=O)[C@H](CC(C)C)NC(=O)[C@H](CCC(N)=O)NC(=O)[C@H](CO)NC(=O)[C@H](C)NC(=O)[C@H](CCC(=O)O)NC(=O)CCCCCCCCCCCCCCCCCCC(=O)O)[C@@H](C)O)C(C)C)C(=O)N[C@@H](CO)C(=O)N[C@@H](CC(=O)O)C(=O)N[C@@H](CCC(=O)O)C(=O)N[C@@H](CC(C)C)C(=O)N[C@@H](Cc1c[nH]cn1)C(=O)N[C@@H](CCCNC(=N)N)C(=O)N[C@@H](CC(C)C)C(=O)N[C@@H](CCC(N)=O)C(=O)N[C@@H](CC(=O)O)C(=O)N[C@@H](Cc1ccc(O)cc1)C(=O)N1CCC[C@H]1C(=O)N[C@@H](CCCNC(=N)N)C(=O)N[C@H](C(=O)N[C@@H](CC(=O)O)C(=O)N[C@H](C(=O)NCC(=O)N[C@@H](CO)C(=O)NCC(=O)N[C@@H](CO)C(=O)N1CCC[C@H]1C(N)=O)C(C)C)[C@@H](C)O [M10] ({C20 diacid}-EASQLSTAVLGRLSDELHRLQDYPRTDVGSGSP-NH2) | −2.290% | −10.562%
7 | 2.59% | −2.19% |  | 10.82 | CC(C)C[C@H](NC(=O)[C@H](CCCNC(=N)N)NC(=O)CNC(=O)[C@H](CC(C)C)NC(=O)[C@@H](NC(=O)[C@H](C)NC(=O)[C@@H](NC(=O)[C@H](CO)NC(=O)[C@H](CC(C)C)NC(=O)[C@H](CCC(N)=O)NC(=O)[C@H](CO)NC(=O)[C@H](C)NC(=O)COCCOCCNC(=O)COCCOCCNC(=O)CC[C@H](NC(=O)CCCCCCCCCCCCCCCCC(=O)O)C(=O)O)[C@@H](C)O)C(C)C)C(=O)N[C@@H](CO)C(=O)N[C@@H](CC(=O)O)C(=O)N[C@@H](CCC(=O)O)C(=O)N[C@@H](CC(C)C)C(=O)N[C@@H](Cc1c[nH]cn1)C(=O)N[C@@H](CCCNC(=N)N)C(=O)N[C@@H](CC(C)C)C(=O)N[C@@H](CCC(N)=O)C(=O)N[C@@H](CC(=O)O)C(=O)N[C@@H](Cc1ccc(O)cc1)C(=O)N1CCC[C@H]1C(=O)N[C@@H](CCCNC(=N)N)C(=O)N[C@H](C(=O)N[C@@H](CC(=O)O)C(=O)N[C@H](C(=O)NCC(=O)N[C@@H](CO)C(=O)NCC(=O)N[C@@H](CO)C(=O)N1CCC[C@H]1C(N)=O)C(C)C)[C@@H](C)O [M22] ({C18 diacid-γGlu-AEEA-AEEA}-ASQLSTAVLGRLSDELHRLQDYPRTDVGSGSP-NH2) |  | −5.493%
8 |  |  |  | 10.48 | H-ASQLSTAVLGRLSQELHRLQDYPRTDVGSGSP-NH2 [M5] |  | 
